Laboratory results from US20050154537A1, “Methods, program products, and systems for single and multi-agent dosing and other related methods” (priority 2003, published 2005).

How the values were obtained:
Type in all cases: in vivo
Platelets = assay: Lookup table: marker validity (nadir) window, Platelets; details: days elapsed between current dose and marker
Source text: (§1) A lookup table has been constructed (see above example), in the form of a table, to represent the relationship of each trial Agent and its qualified Clinical Markers. This table includes information regarding the Maximum Dose and the Inverse Marker Applicability for each Agent. The gray cells on the Cycle Dose Modifier indicate these values.
(§2) The table also includes information regarding the nadir of applicability for each Agent—Marker combination. The range, in days and indicated as the Lower Limit and Upper limit, has been determined by calculating a percentage (20%) above and below the true nadir value when only a single value is known. Otherwise, the upper and lower nadir values are used. […] The values of Upper and Lower limits is shown as a property of the Association between Markers and Agents. The Relevancy of a Marker can be computed using the lookup table by comparing the number of days elapsed between the date of the application of the current dose and the date on which the Marker was taken to the upper and lower values for that Agent Marker Association. If the elapsed days are greater than or equal to the lower limit and less than or equal to the upper limit, then the calculations provided by the Cycle Dose Modifier are said to be relevant and thereby applicable as indicated in the yellow Marker Validity cell. The Relevancy of Cycle Dose Modifier Calculations for Agent 1 is based on the Validity of Marker for Agent 1 calculated by: =IF(and((($B13−B6)>=VLOOKUP(B$3,Validity!$A$3:$K$8,10)),((B$13−B6)<=VLOOKUP(B$3,Validity!$A$3:$K$8,11))),“valid”,“invalid”)

Neutrophil Count (ANC) [1] = assay: Lookup table: marker validity (nadir) window, Neutrophil Count (ANC); details: days elapsed between current dose and marker
Source text: as §1, §2

Neutrophil Count (ANC) [2] = assay: Chemotherapeutic triplet cycle dose modifier (Taxol, Gemzar, Carboplatin), toxicity marker; details: patient on triplet
Source text: Table 3 illustrates a method of revising a drug dose in treating a patient with three pharamcologic and non-pharmacological modalities to optimize pharmacologic outcome, e.g., to reduce risk of an adverse drug event while assessing the clinical relevancy and validity of the measured surrogate markers. Previous Level of Toxicity-Efficacy (PLTE) is a value directly entered such as from a lab report. It is the numerical value of the marker of toxicity or efficacy reported at the previous dose cycle adjustment (evaluated at a specified elapsed time sufficient to capture the nadir of the dose effect). The surrogate marker is selected when the dose modifier is constructed. Current Level of Toxicity-Efficacy (CLTE) is a value directly entered such as from a lab report. It is the numerical value of the marker of toxicity or efficacy reported with the current dose cycle. The surrogate marker is that value that illustrates the expression of the toxicity or efficacy of the agent on a specific and pre-selected value determined when the dose modifier is constructed. […] If valid the value is fully appreciated and the dose modification can be calculated. […] The range, in days and indicated as the Lower Limit and Upper limit, has been determined by calculating a percentage (20%) above and below the true nadir value when only a single value is known. […]

**Q.** `CC(=O)O[C@H]1C(=O)[C@@]2(C)[C@H]([C@H](OC(=O)c3ccccc3)[C@]3(O)C[C@H](OC(=O)[C@H](O)[C@@H](NC(=O)c4ccccc4)c4ccccc4)C(C)=C1C3(C)C)[C@]1(OC(C)=O)CO[C@@H]1C[C@@H]2O` [Taxol] was tested. Which “Platelets LL” value (Platelets; lower limit of nadir range) did it give?
**A.** 8 days

**Q.** And the “Platelets UL” value (Platelets; upper limit of nadir range)?
**A.** 11 days

**Q.** What about the “Neutrophil Count (ANC) LL” value (Neutrophil Count (ANC) [1]; lower limit of nadir range) of the same molecule?
**A.** 8 days

**Q.** And the “Neutrophil Count (ANC) UL” value (Neutrophil Count (ANC) [1]; upper limit of nadir range)?
**A.** 11 days

**Q.** What about the “Current Level of Toxicity/CLTEM1” value (Neutrophil Count (ANC) [2]; current cycle total dose Taxol 450.00, Gemzar 7000.00, Carboplatin 650.00, marker Oct. 30, 2004) of the same molecule?
**A.** 0.80

**Q.** What about the “Previous Level of Toxicity/PLTEM1” value (Neutrophil Count (ANC) [2]; previous cycle total dose Taxol 400.00, Gemzar 8000.00, Carboplatin 600.00) of the same molecule?
**A.** 0.40
